In patent US20240415835A1, “COMPOSITIONS COMPRISING AN ERK INHIBITOR” (Otsuka Pharmaceutical Co., Ltd., priority 2021, published 2024):
Converted amounts (≈) assume the structure as drawn.

Columns and labels:
[1] = Primate study, 3-way crossover, oral administration; format: in vivo; conditions: monkeys, oral 20 mg/kg, three dosing occasions
Experimental: A total of 6 animals were used in a 3-way (2+2+2) crossover design where, on each of the three dosing occasions, 2 of the animals were administered Compound I in powder in bottle (PiB) suspension in vehicle for reconstitution (20 mg/kg), 2 of the animals were administered Compound I solid dispersion suspension (20 mg/kg) of Example 1, while another 2 animals were administered Compound I in a tablet form (20 mg/kg) of Example 2. The vehicle for reconstitution comprised Propylene Glycol USP 80.0% w/w; Ethanol USP 10.0% w/w; Vit E TPGS USP 10.0% w/w for a total of 100.0% w/w.
Dosing for this study was conducted in fasted state. […]
The animals were observed closely during the first 12 hrs after each dosing and once daily on non-dosing days. Body weights were measured and recorded prior to dosing and blood samples for pharmacokinetic profiling were taken at the pre-defined time points for all animals. […] All plasma samples from this study were analyzed by this method and plasma concentration of Compound I were expressed in terms of ng/mL.
The error bars refer to standard deviation. […] AUClast refers to the area under the concentration-time curve from dosing (time 0) to the time of the last measured concentration (24 hours).

[2] = gastric to intestinal (G-IB) transfer microcentrifuge dissolution test; format: physicochemical
Experimental: The solid dispersions described in Example 1 were evaluated in two non-sink dissolution tests to evaluate various aspects of the formulations and how they might be differentiated. The two dissolution tests that were evaluated include a gastric to intestinal (G-IB) transfer microcentrifuge dissolution test and an ultracentrifuge free-drug test.
The gastric-to-intestinal buffer (G-IB) transfer dissolution test is used to measure the supersaturation of drug above the solubility of bulk drug when dosed as a powder, first into media at a lower pH value to imitate a fasted stomach. After 30 minutes of exposure to the gastric media, the samples are transferred into the higher pH media as an imitation of the intestine. The drug concentrations measured in this test are a composite of free drug, drug in micelles, and drug suspended in solution as drug/polymer colloids.
The G-IB dissolution test is performed the same way, but with a 30 minute gastric exposure prior to transferring into the intestinal media. The intestinal media for the G-IB dissolution test is doubly concentrated in terms of buffering and bile salts, so that after the gastric transfer step, the final pH is 6.5 and SIF concentration is 0.5 wt %.
The microcentrifuge dissolution test separates the precipitate (undissolved drug) and total solubilized drug. Total solubilized drug consists of three solubilized species: freely solubilized drug, drug associated with bile salt micelles, and drug associated with polymer (drug-polymer colloids). These three species have different activities in vivo and differentiate formulations. The freely solubilized drug is the smallest species and is the most readily available for absorption. Freely solubilized drug can cross the unstirred mucous boundary layer and be absorbed into the blood through the epithelium. The drug associated with micelles diffuse across the unstirred mucous boundary layer and resupply free drug as it is absorbed. Finally, the drug-polymer colloids also resupply free drug as it is absorbed and can have a contribution to effective diffusion rate. These colloids can be important depending on the rate-limiting step for absorption.
A solid dispersion comprising Compound I: HPMCAS in a ratio of 1:2 (“33.3% HPMCAS”) was prepared from 2.7 grams of the free base hydrate crystalline form B of Compound I and 5.3 grams of HPMCAS (Shin Etsu, L grade, F particle size (≤10 microns particle size)), using a similar procedure of Example 1. Briefly, 2 mg test compound/mL in 0.9 mL gastric buffer was transferred to a final dose of 1 mg/mL in 1.8 mL of 0.5% SIF in PBS at pH 6.5 at room temperature to provide 1.8 mL total volume test solution. The samples were centrifuged at 15,800 g for 1 minute. At specified timepoint, 50 μL aliquot samples were diluted 6× with 50/50 acetonitrile/water and assayed by HPLC.
The solid dispersion was evaluated together with the 25% Compound I: HPMCAS solid dispersion (“25% HPMCAS”) and 95.3% Compound I (freebase hydrate, “Crystalline API”), using the G-IB dissolution test described in Example 3-1.

[3] = ultracentrifuge free-drug test (drug speciation); format: physicochemical
Experimental: The ultracentrifuge free-drug analysis is used to determine the species of dissolved drug that are present for each formulation. This test is performed at several timepoints, i.e., 0, 30, 60 and 90 minutes, during the microcentrifuge test, and it consists of a centrifugation step at 300,000 g that removes any colloidal species that are present, leaving only the free drug and drug in micelle species. In combination with the microcentrifuge data, this allows for determination of free drug and colloidal content at the timepoint where both are tested.

[4] = intestinal buffer, 0.5% SIF in PBS pH 6.5, 1 mg/mL

In the case of `COc1cc(F)cc([C@@H](CO)NC(=O)[C@@H](C)N2Cc3ccc(-c4nc(NC5CCOCC5)ncc4Cl)cc3C2=O)c1` [Compound I, (2R)-2-(6-{5-chloro-2-[(tetrahydro-2H-pyran-4-yl)amino]pyrimidin-4-yl}-1-oxo-2,3-dihydro-1H-isoindol-2-yl)-N-[(S)-1-(3-fluoro-5-methoxyphenyl)-2-hydroxyethyl]propanamide], the “clinical signs as a result of treatment” value [1] is reported as “no clinical signs”.

In the case of `COc1cc(F)cc([C@@H](CO)NC(=O)[C@@H](C)N2Cc3ccc(-c4nc(NC5CCOCC5)ncc4Cl)cc3C2=O)c1` [Crystalline API], the CmaxGB ([2]; gastric buffer, 2 mg/mL, room temperature) is reported as 20000 ng/mL, the C1200 ([2]; intestinal buffer, 0.5% SIF in PBS pH 6.5) is reported as 21 µg/mL and the “AUC4-90 IB” value [2, 4] is reported as 1,610 min*μg/mL. The “C90 IB” value [2, 4] was 21 µg/mL, the “Cmax90 IB” value [2, 4] was 21000 ng/mL and the Ultra1200 ([3]; ultracentrifuge) was 19 µg/mL. For the same molecule, the Ultra90 ([3]; ultracentrifuge, 90 minutes) was 21 µg/mL.

In the case of `COc1cc(F)cc([C@@H](CO)NC(=O)[C@@H](C)N2Cc3ccc(-c4nc(NC5CCOCC5)ncc4Cl)cc3C2=O)c1` [amorphous Compound I], the solubility ([3]; pH 6.5, fassgf or other biorelevant, FIG. 2 speciation data from the dissolution test) is reported as about 15 µg/mL (≈ 25.7 µM).
